From patent US20230085307A1, “PYRIDAZINONE COMPOUND AND HERBICIDE” (NISSAN CHEMICAL CORPORATION, priority 2019, published 2023)

How the values were obtained:
lambsquarters [1] = assay: Test Example 4: herbicidal effect by soil treatment (Table 19, symbol O); type: in vivo, lambsquarters (Chenopodium album); settings: amount of applied herbicide 320 g/ha
Procedure, shortened: (§1)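 Scoring uses the grading scale of an earlier test, three weeks post-application. Treatment consists of spraying a diluted emulsion formulation across the surface of sterilized diluvial soil in which seeds are buried near 1.5 cm deep; boxes are kept in a greenhouse between 25° C. and 30° C.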

barnyard grass [2] = assay: Test Example 5: herbicidal effect by foliage application, plastic box (Table 20, symbol H); type: in vivo, barnyard grass (Echinochloa crus-galli); settings: foliage application, 320 g/ha, evaluated three weeks after application
Procedure, shortened: (§2)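 Post-emergence foliar test in sterilized diluvial soil. Compound applied as water-diluted emulsion at a predetermined rate to 14-day-old plants; evaluation at three weeks.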

wild oat [3] = assay: Test Example 4: herbicidal effect by soil treatment (Table 19, symbol I); type: in vivo, wild oat (Avena fatua); settings: amount of applied herbicide 320 g/ha
Procedure, shortened: as §1

southern crabgrass [4] = assay: Test Example 4: herbicidal effect by soil treatment (Table 19, symbol F); type: in vivo, southern crabgrass (Digitaria ciliaris); settings: amount of applied herbicide 320 g/ha
Procedure, shortened: as §1

Italian ryegrass [5] = assay: Test Example 5: herbicidal effect by foliage application, plastic box (Table 20, symbol K); type: in vivo, Italian ryegrass (Lolium multiflorum); settings: foliage application, 320 g/ha, evaluated three weeks after application
Procedure, shortened: as §2

redroot pigweed [6] = assay: Test Example 5: herbicidal effect by foliage application, plastic box (Table 20, symbol N); type: in vivo, redroot pigweed (Amaranthus retroflexus); settings: foliage application, 320 g/ha, evaluated three weeks after application
Procedure, shortened: as §2

blackgrass [7] = assay: Test Example 5: herbicidal effect by foliage application, plastic box (Table 20, symbol J); type: in vivo, blackgrass (Alopecurus myosuroides); settings: foliage application, 320 g/ha, evaluated three weeks after application
Procedure, shortened: as §2

lambsquarters [8] = assay: Test Example 5: herbicidal effect by foliage application, plastic box (Table 20, symbol O); type: in vivo, lambsquarters (Chenopodium album); settings: foliage application, 320 g/ha, evaluated three weeks after application
Procedure, shortened: as §2

barnyard grass [9] = assay: Test Example 4: herbicidal effect by soil treatment (Table 19, symbol H); type: in vivo, barnyard grass (Echinochloa crus-galli); settings: amount of applied herbicide 320 g/ha
Procedure, shortened: as §1

Italian ryegrass [10] = assay: Test Example 4: herbicidal effect by soil treatment (Table 19, symbol K); type: in vivo, Italian ryegrass (Lolium multiflorum); settings: amount of applied herbicide 320 g/ha
Procedure, shortened: as §1

southern crabgrass [11] = assay: Test Example 5: herbicidal effect by foliage application, plastic box (Table 20, symbol F); type: in vivo, southern crabgrass (Digitaria ciliaris); settings: foliage application, 320 g/ha, evaluated three weeks after application
Procedure, shortened: as §2

windgrass [12] = assay: Test Example 5: herbicidal effect by foliage application, plastic box (Table 20, symbol L); type: in vivo, windgrass (Apera spica-venti); settings: foliage application, 320 g/ha, evaluated three weeks after application
Procedure, shortened: as §2

persian speedwell [13] = assay: Test Example 5: herbicidal effect by foliage application, plastic box (Table 20, symbol R); type: in vivo, Persian speedwell (Veronica persica); settings: foliage application, 320 g/ha, evaluated three weeks after application
Procedure, shortened: as §2

blackgrass [14] = assay: Test Example 4: herbicidal effect by soil treatment (Table 19, symbol J); type: in vivo, blackgrass (Alopecurus myosuroides); settings: amount of applied herbicide 320 g/ha
Procedure, shortened: as §1

green foxtail [15] = assay: Test Example 5: herbicidal effect by foliage application, plastic box (Table 20, symbol G); type: in vivo, green foxtail (Setaria viridis); settings: foliage application, 320 g/ha, evaluated three weeks after application
Procedure, shortened: as §2

persian speedwell [16] = assay: Test Example 4: herbicidal effect by soil treatment (Table 19, symbol R); type: in vivo, Persian speedwell (Veronica persica); settings: amount of applied herbicide 320 g/ha
Procedure, shortened: as §1

chickweed [17] = assay: Test Example 4: herbicidal effect by soil treatment (Table 19, symbol P); type: in vivo, common chickweed (Stellaria media); settings: amount of applied herbicide 320 g/ha
Procedure, shortened: as §1

chickweed [18] = assay: Test Example 5: herbicidal effect by foliage application, plastic box (Table 20, symbol P); type: in vivo, common chickweed (Stellaria media); settings: foliage application, 320 g/ha, evaluated three weeks after application
Procedure, shortened: as §2

green foxtail [19] = assay: Test Example 4: herbicidal effect by soil treatment (Table 19, symbol G); type: in vivo, green foxtail (Setaria viridis); settings: amount of applied herbicide 320 g/ha
Procedure, shortened: as §1

redroot pigweed [20] = assay: Test Example 4: herbicidal effect by soil treatment (Table 19, symbol N); type: in vivo, redroot pigweed (Amaranthus retroflexus); settings: amount of applied herbicide 320 g/ha
Procedure, shortened: as §1

wild oat [21] = assay: Test Example 5: herbicidal effect by foliage application, plastic box (Table 20, symbol I); type: in vivo, wild oat (Avena fatua); settings: foliage application, 320 g/ha, evaluated three weeks after application
Procedure, shortened: as §2

windgrass [22] = assay: Test Example 4: herbicidal effect by soil treatment (Table 19, symbol L); type: in vivo, windgrass (Apera spica-venti); settings: amount of applied herbicide 320 g/ha
Procedure, shortened: as §1

velvetleaf [23] = assay: Test Example 4: herbicidal effect by soil treatment (Table 19, symbol M); type: in vivo, velvetleaf (Abutilon theophrasti); settings: amount of applied herbicide 320 g/ha
Procedure, shortened: as §1

velvetleaf [24] = assay: Test Example 5: herbicidal effect by foliage application, plastic box (Table 20, symbol M); type: in vivo, velvetleaf (Abutilon theophrasti); settings: foliage application, 320 g/ha, evaluated three weeks after application
Procedure, shortened: as §2

Row | SMILES | O: lambsquarters, herbicidal effect rating (lambsquarters [1]) | I: wild oat, herbicidal effect rating (wild oat [3]) | F: southern crabgrass, herbicidal effect rating (southern crabgrass [4]) | H: barnyard grass, herbicidal effect rating (barnyard grass [9]) | K: Italian ryegrass, herbicidal effect rating (Italian ryegrass [10]) | J: blackgrass, herbicidal effect rating (blackgrass [14]) | R: persian speedwell, herbicidal effect rating (persian speedwell [16]) | P: chickweed, herbicidal effect rating (chickweed [17]) | G: green foxtail, herbicidal effect rating (green foxtail [19]) | N: redroot pigweed, herbicidal effect rating (redroot pigweed [20]) | L: windgrass, herbicidal effect rating (windgrass [22]) | M: velvetleaf, herbicidal effect rating (velvetleaf [23]) | other results
1 | COc1ccc(-c2sc3ccc(C)cc3c2-c2c(O)c(C)nn(C)c2=O)cc1 [2-140] | 0 (Herbicidal rate of 5% or less (almost no effect)) | 0 (Herbicidal rate of 5% or less (almost no effect)) | 0 (Herbicidal rate of 5% or less (almost no effect)) | 0 (Herbicidal rate of 5% or less (almost no effect)) | 0 (Herbicidal rate of 5% or less (almost no effect)) | 0 (Herbicidal rate of 5% or less (almost no effect)) | 3 (Herbicidal rate of 40% or more and less than 70%) | 0 (Herbicidal rate of 5% or less (almost no effect)) | 0 (Herbicidal rate of 5% or less (almost no effect)) | 2 (Herbicidal rate of 20% or more and less than 40%) | 0 (Herbicidal rate of 5% or less (almost no effect)) | 3 (Herbicidal rate of 40% or more and less than 70%) | herbicidal effect on H: barnyard grass (barnyard grass [2]): 0 (Herbicidal rate of 5% or less (almost no effect)); herbicidal effect on K: Italian ryegrass (Italian ryegrass [5]): 0 (Herbicidal rate of 5% or less (almost no effect)); herbicidal effect on N: redroot pigweed (redroot pigweed [6]): 3 (Herbicidal rate of 40% or more and less than 70%); herbicidal effect on J: blackgrass (blackgrass [7]): 0 (Herbicidal rate of 5% or less (almost no effect)); herbicidal effect on O: lambsquarters (lambsquarters [8]): 3 (Herbicidal rate of 40% or more and less than 70%); herbicidal effect on F: southern crabgrass (southern crabgrass [11]): 0 (Herbicidal rate of 5% or less (almost no effect)); herbicidal effect on L: windgrass (windgrass [12]): 0 (Herbicidal rate of 5% or less (almost no effect)); herbicidal effect on R: persian speedwell (persian speedwell [13]): 5 (Herbicidal rate of 90% or more (almost completely withered)); herbicidal effect on G: green foxtail (green foxtail [15]): 0 (Herbicidal rate of 5% or less (almost no effect)); herbicidal effect on P: chickweed (chickweed [18]): 4 (Herbicidal rate of 70% or more and less than 90%); herbicidal effect on I: wild oat (wild oat [21]): 0 (Herbicidal rate of 5% or less (almost no effect)); herbicidal effect on M: velvetleaf (velvetleaf [24]): 4 (Herbicidal rate of 70% or more and less than 90%)
2 | CCCC(=O)Oc1c(C)nn(C)c(=O)c1-c1c(-c2ccc(OC)cc2)sc2ccc(C)cc12 [2-141] | 0 (Herbicidal rate of 5% or less (almost no effect)) | 0 (Herbicidal rate of 5% or less (almost no effect)) | 0 (Herbicidal rate of 5% or less (almost no effect)) | 0 (Herbicidal rate of 5% or less (almost no effect)) | 0 (Herbicidal rate of 5% or less (almost no effect)) | 0 (Herbicidal rate of 5% or less (almost no effect)) | 2 (Herbicidal rate of 20% or more and less than 40%) | 0 (Herbicidal rate of 5% or less (almost no effect)) | 0 (Herbicidal rate of 5% or less (almost no effect)) | 0 (Herbicidal rate of 5% or less (almost no effect)) | 0 (Herbicidal rate of 5% or less (almost no effect)) | 0 (Herbicidal rate of 5% or less (almost no effect)) | herbicidal effect on H: barnyard grass (criteria 0-5) (barnyard grass [2]): 0 (Herbicidal rate of 5% or less (almost no effect)); herbicidal effect on K: Italian ryegrass (criteria 0-5) (Italian ryegrass [5]): 0 (Herbicidal rate of 5% or less (almost no effect)); herbicidal effect on N: redroot pigweed (criteria 0-5) (redroot pigweed [6]): 0 (Herbicidal rate of 5% or less (almost no effect)); herbicidal effect on J: blackgrass (criteria 0-5) (blackgrass [7]): 0 (Herbicidal rate of 5% or less (almost no effect)); herbicidal effect on O: lambsquarters (criteria 0-5) (lambsquarters [8]): 0 (Herbicidal rate of 5% or less (almost no effect)); herbicidal effect on F: southern crabgrass (criteria 0-5) (southern crabgrass [11]): 0 (Herbicidal rate of 5% or less (almost no effect)); herbicidal effect on L: windgrass (criteria 0-5) (windgrass [12]): 0 (Herbicidal rate of 5% or less (almost no effect)); herbicidal effect on R: persian speedwell (criteria 0-5) (persian speedwell [13]): 5 (Herbicidal rate of 90% or more (almost completely withered)); herbicidal effect on G: green foxtail (criteria 0-5) (green foxtail [15]): 0 (Herbicidal rate of 5% or less (almost no effect)); herbicidal effect on P: chickweed (criteria 0-5) (chickweed [18]): 5 (Herbicidal rate of 90% or more (almost completely withered)); herbicidal effect on I: wild oat (criteria 0-5) (wild oat [21]): 0 (Herbicidal rate of 5% or less (almost no effect)); herbicidal effect on M: velvetleaf (criteria 0-5) (velvetleaf [24]): 0 (Herbicidal rate of 5% or less (almost no effect))
